Consider eight molecules from PubChem BioAssay AID258 (DTP/NCI, 2004).

This assay has as its system CD2F1 mice, L1210 leukemia sc, survival T/C. In words: NCI In Vivo Anticancer Drug Screen. Data for tumor model L1210 Leukemia (subcutaneous) in CD2F1 (CDF1) mice. The note with it: endpoint: median survival time, higher = longer survival. The procedure, abridged: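 Read-out: survival or tumor size. Value = treated (T) / vehicle control (C). Transplantable tumor in mice.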

Several values for one entry are separate records, joined by “and”; a condition that tells them apart may be missing. Identical values can stand only once. Toxic doses and inconclusive results are not listed.

As for `CN(N=O)C(=O)N[C@@H](C=O)[C@@H](O)[C@H](O)[C@H](O)CO`, the T/C by setting is: (dose: 12.5 mg/kg/injection, schedule: Q01DX009 (ip), vehicle: other) 110 % of control; (dose: 12.5 mg/kg/injection, schedule: Q01DX009 (sc), vehicle: other) 104 % of control and 109 % of control; (dose: 25.0 mg/kg/injection, schedule: Q01DX009 (ip), vehicle: other) 124 % of control; (dose: 25.0 mg/kg/injection, schedule: Q01DX009 (sc), vehicle: other) 106 % of control and 122 % of control; (dose: 50.0 mg/kg/injection, schedule: Q01DX009 (sc), vehicle: other) 109 % of control; (dose: 100.0 mg/kg/injection, schedule: Q01DX009 (ip), vehicle: other) 121 % of control. Moreover, the T/C by setting is: (dose: 100.0 mg/kg/injection, schedule: Q01DX009 (sc), vehicle: other) 115 % of control; (dose: 200.0 mg/kg/injection, schedule: Q01DX009 (sc), vehicle: other) 111 % of control.

In the case of `Nc1ncn(C2OC(CO)C(O)C2O)c(=O)n1` (stereo not drawn), the T/C reads like this: (dose: 0.2 mg/kg/injection, schedule: Q01DX009 (ip), vehicle: saline) 97 % of control; (dose: 0.2 mg/kg/injection, schedule: Q01DX009 (sc), vehicle: saline) 102 % of control; (dose: 0.4 mg/kg/injection, schedule: Q01DX009 (ip), vehicle: saline) 113 % of control; (dose: 0.4 mg/kg/injection, schedule: Q01DX009 (sc), vehicle: saline) 115 % of control and 119 % of control; (dose: 0.8 mg/kg/injection, schedule: Q01DX009 (sc), vehicle: saline) 120 % of control; (dose: 1.07 mg/kg/injection, schedule: Q01DX009 (sc), vehicle: saline) 158 % of control. Also, the T/C is, setting by setting: (dose: 1.6 mg/kg/injection, schedule: Q01DX009 (ip), vehicle: saline) 150 % of control; (dose: 2.1 mg/kg/injection, schedule: Q01DX009 (ip), vehicle: saline) 178 % of control; (dose: 2.1 mg/kg/injection, schedule: Q01DX009 (sc), vehicle: saline) 187 % of control; (dose: 7.2 mg/kg/injection, schedule: Q01DX009 (ip), vehicle: saline) 206 % of control and 88 % of control; (dose: 9.6 mg/kg/injection, schedule: Q01DX009 (ip), vehicle: saline) 113 % of control; (dose: 28.8 mg/kg/injection, schedule: Q01DX009 (sc), vehicle: saline) 106 % of control.

As to `CC1CCC(NC(=O)N(CCCl)N=O)CC1` (stereo not drawn), the T/C runs as follows: (dose: 0.25 mg/kg/injection, schedule: Q01DX009 (ip), vehicle: saline + alcohol) 96 % of control; (dose: 0.5 mg/kg/injection, schedule: Q01DX009 (ip), vehicle: saline + alcohol) 112 % of control; (dose: 1.0 mg/kg/injection, schedule: Q01DX009 (ip), vehicle: saline + alcohol) 122 % of control; (dose: 4.0 mg/kg/injection, schedule: Q01DX009 (ip), vehicle: saline + alcohol) 153 % of control and 239 % of control; (dose: 4.0 mg/kg/injection, schedule: Q01DX009 (sc), vehicle: saline + alcohol) 107 % of control; (dose: 5.3 mg/kg/injection, schedule: Q01DX009 (sc), vehicle: saline + alcohol) 225 % of control. For the same molecule, the T/C is, setting by setting: (dose: 8.0 mg/kg/injection, schedule: Q01DX009 (ip), vehicle: saline + alcohol) 163 % of control and 267 % of control; (dose: 8.0 mg/kg/injection, schedule: Q01DX009 (sc), vehicle: saline + alcohol) 120 % of control and 246 % of control; (dose: 10.7 mg/kg/injection, schedule: Q01DX009 (ip), vehicle: saline + alcohol) 745 % of control; (dose: 12.0 mg/kg/injection, schedule: Q01DX009 (sc), vehicle: saline + alcohol) 250 % of control; (dose: 16.0 mg/kg/injection, schedule: Q01DX009 (ip), vehicle: saline + alcohol) 200 % of control and 230 % of control; (dose: 16.0 mg/kg/injection, schedule: Q01DX009 (sc), vehicle: saline + alcohol) 198 % of control and 209 % of control. The T/C is, setting by setting: (dose: 21.4 mg/kg/injection, schedule: Q01DX009 (sc), vehicle: saline + alcohol) 400 % of control; (dose: 24.0 mg/kg/injection, schedule: Q01DX009 (ip), vehicle: saline + alcohol) 153 % of control; (dose: 24.0 mg/kg/injection, schedule: Q01DX009 (sc), vehicle: saline + alcohol) 123 % of control; (dose: 32.0 mg/kg/injection, schedule: Q01DX009 (sc), vehicle: saline + alcohol) 162 % of control and 203 % of control; (dose: 48.0 mg/kg/injection, schedule: Q01DX009 (ip), vehicle: saline + alcohol) 90 % of control; (dose: 48.0 mg/kg/injection, schedule: Q01DX009 (sc), vehicle: saline + alcohol) 189 % of control. Further, the T/C (dose: 64.0 mg/kg/injection, schedule: Q01DX009 (ip), vehicle: saline + alcohol) is 150 % of control; the T/C (dose: 64.0 mg/kg/injection, schedule: Q01DX009 (sc), vehicle: saline + alcohol) is 122 % of control; the T/C (dose: 256.0 mg/kg/injection, schedule: Q01DX009 (sc), vehicle: saline + alcohol) was 120 % of control.

On to `O=S1(=O)CS(=O)(=O)OCCO1`, for which the T/C was 216 % of control (dose: 25.0 mg/kg/injection, schedule: Q01DX009 (ip), vehicle: Klucel (hydroxypropylcellulose) (HPC)) and 175 % of control (dose: 50.0 mg/kg/injection, schedule: Q01DX009 (ip), vehicle: Klucel (hydroxypropylcellulose) (HPC)).

As to `O=C(Nc1ccc(NC2=NCCN2)cc1)c1cccc(C(=O)Nc2ccc(NC3=NCCN3)cc2)c1`, the T/C reads like this: (dose: 8.4 mg/kg/injection, schedule: Q01DX Z (sc), vehicle: water) 110 % of control; (dose: 14.0 mg/kg/injection, schedule: Q01DX Z (sc), vehicle: water) 100 % of control; (dose: 23.0 mg/kg/injection, schedule: Q01DX Z (sc), vehicle: water) 105 % of control; (dose: 39.0 mg/kg/injection, schedule: Q01DX Z (sc), vehicle: water) 110 % of control.

On to `CCOC(=O)c1c[nH]c2oc(/C=N/N3CC(CN4CCOCC4)OC3=O)cc2c1=O` (stereo not drawn), for which the T/C is 101 % of control (dose: 25.0 mg/kg/injection, schedule: Q01DX009 (ip), vehicle: acid diluted with saline); 109 % of control (dose: 50.0 mg/kg/injection, schedule: Q01DX009 (ip), vehicle: acid diluted with saline); 102 % of control (dose: 50.0 mg/kg/injection, schedule: Q01DX009 (ip), vehicle: other); 108 % of control and 111 % of control (dose: 79.0 mg/kg/injection, schedule: Q01DX005 (ip), vehicle: other); 110 % of control (dose: 100.0 mg/kg/injection, schedule: Q01DX009 (ip), vehicle: acid diluted with saline); 109 % of control and 119 % of control (dose: 118.7 mg/kg/injection, schedule: Q01DX005 (ip), vehicle: other). For the same molecule, the T/C is, setting by setting: (dose: 178.0 mg/kg/injection, schedule: Q01DX005 (ip), vehicle: other) 113 % of control; (dose: 200.0 mg/kg/injection, schedule: Q01DX009 (ip), vehicle: acid diluted with saline) 155 % of control; (dose: 400.0 mg/kg/injection, schedule: Q01DX005 (ip), vehicle: other) 198 % of control; (dose: 400.0 mg/kg/injection, schedule: Q01DX009 (ip), vehicle: acid diluted with saline) 156 % of control.

As to `N[C@H](C(=O)O)[C@@H]1CC(Cl)=NO1`, the T/C (dose: 2.0 mg/kg/injection, schedule: Q01DX009 (sc), vehicle: saline) was 116 % of control.

For `CN(Cc1cnc2nc(N)nc(N)c2n1)c1c(Cl)cc(C(=O)NC(CCC(=O)O)C(=O)O)cc1Br` (stereo not drawn), the T/C was 294 % of control and 318 % of control (dose: 17.0 mg/kg/injection, schedule: Q01DX Z (sc), vehicle: other); 356 % of control and 511 % of control (dose: 28.0 mg/kg/injection, schedule: Q01DX Z (sc), vehicle: other); 350 % of control (dose: 46.0 mg/kg/injection, schedule: Q01DX Z (sc), vehicle: other); 838 % of control (dose: 47.0 mg/kg/injection, schedule: Q01DX Z (sc), vehicle: other); 200 % of control (dose: 47.1 mg/kg/injection, schedule: Q01DX Z (oral), vehicle: other); 262 % of control (dose: 76.0 mg/kg/injection, schedule: Q01DX Z (sc), vehicle: other). The T/C by setting is: (dose: 78.0 mg/kg/injection, schedule: Q01DX Z (sc), vehicle: other) 250 % of control; (dose: 78.1 mg/kg/injection, schedule: Q01DX Z (oral), vehicle: other) 183 % of control; (dose: 126.0 mg/kg/injection, schedule: Q01DX Z (sc), vehicle: other) 193 % of control; (dose: 130.0 mg/kg/injection, schedule: Q01DX Z (sc), vehicle: other) 172 % of control; (dose: 130.1 mg/kg/injection, schedule: Q01DX Z (oral), vehicle: other) 172 % of control; (dose: 216.0 mg/kg/injection, schedule: Q01DX Z (sc), vehicle: other) 150 % of control. The T/C is 166 % of control (dose: 216.1 mg/kg/injection, schedule: Q01DX Z (oral), vehicle: other); 155 % of control (dose: 360.0 mg/kg/injection, schedule: Q01DX Z (sc), vehicle: other); 161 % of control (dose: 360.1 mg/kg/injection, schedule: Q01DX Z (oral), vehicle: other).
